Test results as given in US8071119B2, “Controlled release implantable dispensing device and method” (Sustained Nano Systems LLC, priority 2007, dated 2011).
Where two headings read alike, the source gives them in different places.

Key:
[1] = dexamethasone levels after subconjunctival implantation in pig eyes; type: in vivo; settings: pigs, after subconjunctival implantation of the 211,685 psi disc
Procedure: A cylindrical shaped dosage form is made using dexamethasone and the polymer system was prepared as described above. The dosage form measures 7.87 mm in diameter, has a thickness of 1 mm, a weight of 60 mg and a drug loading of 6.5%. […] The dosage form is placed beneath the conjunctiva in the super temporal quadrant of the eyes of five pigs. […]

[2] = longer term subconjunctival implantation of pellets in rabbit ocular tissues (HPLC tissue levels, histology); type: in vivo; settings: other: subconjunctival implantation of a pellet, 13 weeks after implantation in right eye, 301,568 psi pellet
Procedure: A study was performed to assess the effects of longer term implantation of cylindrical pellets compressed at 301,568 psi, measuring 5 mm length×3 mm diameter, in rabbit ocular tissues. A new 3-mm diameter mold (prepared and adapted to fit/interchange with the supporting hardware of the 7.87 mm diameter mold) was utilized to prepare the smaller pellets required for the rabbit eye. Due to dimensional considerations and the need to reconcile with the pressure applied for preparing the pellets and the mechanical tolerance of the mold, the incremental pressurization approach, described above was utilized, an initial pressure of 1000 lb was applied; thereafter, ˜500 lb of additional pressure was applied approximately every 5 minutes until it reached about 300,000 psi range. The height of the pellets (cylinders) produced were about 5 mm. The pressure noted was 301,568 psi. Similar to the pig model as described above, the pellets were implanted beneath the conjunctiva in the superotemporal quadrant of the right eyes. At stipulated time-points, the rabbits were euthanized to harvest the ocular tissues. Accordingly, the implant sites were dissected out and the rest of the tissues were further separated into: sclera/conjunctiva, cornea and lens. FIG. 7 depicts the histology (cryosectioned, H&E stained) of an implant site 9 weeks post-op.
The dexamethasone levels in rabbit ocular tissue is determined after 13 weeks and is reported in nanograms of dexamethasone per mg of tissue in Table 1. The sclera/conjunctiva, cornea and lens are recovered, processed, and extracted. Dexamethasone levels are determined by HPLC assay. Table 1 reports the dexamethasone recovered from the rabbit ocular tissues after 13 weeks of implantation, which is the longest duration for this study series.

Which dexamethasone in plasma [1] does the source give for `C[C@@H]1C[C@H]2[C@@H]3CCC4=CC(=O)C=C[C@]4(C)[C@@]3(F)[C@@H](O)C[C@]2(C)[C@@]1(O)C(=O)CO` [dexamethasone] here?
The dexamethasone in plasma was “no detectable dexamethasone”.

What about the concentration at 13 weeks ([2]; left lens (eye without implant), read-out: dexamethasone level in Left Lens) of the same compound?
Its concentration at 13 weeks is 18300 ng/g.

What about the concentration at 13 weeks ([2]; left sclera/conjunctiva (eye without implant), read-out: dexamethasone level in Left Sclera/Conjunctiva) of the same compound?
The concentration at 13 weeks was 20300 ng/g.

What about the concentration at 13 weeks ([2]; right cornea (implanted eye), read-out: dexamethasone level in Right Cornea) of the same compound?
Its concentration at 13 weeks is 40400 ng/g.

What about the concentration at 13 weeks ([2]; right lens (implanted eye), read-out: dexamethasone level in Right Lens) of the same compound?
The concentration at 13 weeks was 78100 ng/g.

What about the concentration at 13 weeks ([2]; right sclera/conjunctiva (implanted eye), read-out: dexamethasone level in Right Sclera/Conjunctiva) of the same compound?
The concentration at 13 weeks was 415000 ng/g.
